# Laboratory results from PMC6332339, “Synthesis, Characterization, and Anti-Cancer Activity of Some New N′-(2-Oxoindolin-3-ylidene)-2-propylpentane hydrazide-hydrazones Derivatives” (Molecules, 2015).
# “Also recorded” adds a separate entry of the source.
# Key:
# [1] = tested on: human tumour cell lines (HepG2 and Jurkat); experiment: MTT assay, summary over the tested human tumour cell lines; assay type: cell-based; conditions: summary over HepG2 and Jurkat cells
# Procedure: (§1) The cyto-toxicity activity was measured in vitro in HepG2, Jurkat, and HEK 293 cells using the MTT […] colorimetric assay. For comparison, 5-Fluorouracil (5-FU) was used as a standard anti-cancer drug. Treatment with dimethylsulfoxide (DMSO) was used as a control for the cancer cells.
# (§2) The stock concentration of the entire compound in DMSO was 10 mM and this concentration was used to prepare the working dilution. The final DMSO concentration used in the experiments was ≤0.5% as the working concentration. Human liver cancer cell lines (HepG2), human leukemia cell line (Jurkat), and human embryonic kidney cell line (HEK293) cells were cultured in high glucose Dulbecco’s Modified Eagle Medium (DMEM: Life technologies cat #11995073) supplemented with 10% Fetal bovine serum (FBS: Life technologies cat #16000044) in a humidified incubator with 5% CO2 at 37 °C. Around 2 ×10^3 cells were seeded in each well of a 24-well cell culture plate and were allowed to adhere and grow for 24 h. The Jurkat cells grow in suspension so they were cultured and allowed to grow overnight before the addition of compounds. The compounds in serial dilutions (1, 3, 15, 45, 100, and 300 μM) were added after 24 h of culture and the cells were cultured for another 24 h at 37 °C. The cell viability was determined in each experiment using MTT 1-(4,5-dimethylthiazol-2-yl)-3,5-diphenylformazan colorimetric assay. Briefly, the treated or untreated cells were trypsenized and centrifuged, and the resulting pellet was re-suspended in 100 μL of DMEM serum-free medium and incubated at 37 °C for 2 h. After incubation, 20 μL of MTT solution (5 mg/mL in PBS: Sigma Aldrich cat #M2003) was added to each well and further incubated for 2 h. The plate was centrifuged at […] for 10 min then the medium was removed from each well and 2-propanol containing 0.04 M HCl was added to dissolve the formazan produced in the cells. The optical density of the formazan product in solution was measured with a microplate reader at 540 nm. The experiment was conducted in triplicate. Data were calculated as percent of cell viability by the following formula:
# (§3) % cell viability = (Mean absorbance in test wells/Mean absorbance in control wells) × 100 (1)
# (§4) The IC50 values were calculated from the means of six different concentrations by Bio Data Fit 1.02 using the software Bio Tool Kit (Version 300; Chang Bioscience Inc., Castro Valley, CA, USA) and online program http://ic50.tk/index.html.
# [2] = tested on: HepG2 human liver cancer cell line; experiment: MTT cytotoxicity assay in HepG2 cells; assay type: cell-based; conditions: 24 h treatment, mean ± SD; for IC50: Homo sapiens
# Procedure: as §1, §2, §3, §4
# [3] = tested on: Jurkat human leukaemia cell line; experiment: MTT cytotoxicity assay in Jurkat cells; assay type: cell-based; conditions: 24 h treatment, mean ± SD
# Procedure: as §1, §2, §3, §4
# [4] = tested on: HEK293 human embryonic kidney cell line; experiment: MTT cytotoxicity assay in normal HEK293 cells; assay type: cell-based; conditions: 24 h treatment, mean ± SD; for IC50: Homo sapiens
# Procedure: as §1, §2, §3, §4
melting point [°C],IC50 [1] [µM],Structure (SMILES),IC50 (μM) HepG2 [2],IC50 [2] [µM],IC50 [3] [µM],IC50 (μM) Jurkat [3],"IC50 ([3]; Homo sapiens, Jurkat, 24 h) [µM]",IC50 (μM) HEK293 [4],IC50 [4] [µM],IC50 ([3]; Homo sapiens) [µM]
175 to 176,3 to 7,"CCCC(CCC)C(=O)N/N=C1\C(=O)Nc2ccccc21 [Compound 4a, (Z) N′-(2-Oxoindolin-3-ylidene)-2-propylpentane Hydrazide]",inactive; also recorded: no anti-cancer activity,> 100,3.15,strong activity,3.14,inactive,> 100,
170 to 172,,"CCCC(CCC)C(=O)N/N=C1\C(=O)N(Cc2ccccc2)c2ccccc21 [Compound 4f, (Z) N′-(1-Benzyl-2-oxoindolin-3-ylidene)-2-propylpentane Hydrazide]",no anti-cancer activity,> 100,,,> 100,,> 100,
180 to 181,,"CCCC(CCC)C(=O)NNC(=O)C(=O)c1ccccc1NC(C)=O [Compound 4h, N-(2-(2-Oxo-2-(2-(2-propylpentanoyl)hydrazinyl)acetyl)phenyl) Acetamide]",no anti-cancer activity,> 100,,,> 100,,> 100,
154 to 156,3 to 7,"CCCC(CCC)C(=O)N/N=C1\C(=O)N(C)c2ccccc21 [Compound 4e, (Z) N′-(1-Methyl-2-oxoindolin-3-ylidene)-2-propylpentane Hydrazide]",,7.61,,,3.19,no activity,> 100,
172 to 173,,"CCCC(CCC)C(=O)N/N=C1\C(=O)Nc2ccc(Br)cc21 [Compound 4b, (Z) N′-(5-Bromo-2-oxoindolin-3-ylidene)-2-propylpentane Hydrazide]",no anti-cancer activity,> 100,,,> 100,,26.1 ± 31.3,
180 to 182,,"CCCC(CCC)C(=O)N/N=C1\C(=O)Nc2ccc(F)cc21 [Compound 4d, (Z) N′-(5-Fluoro-2-oxoindolin-3-ylidene)-2-propylpentane Hydrazide]",,> 100,,,> 100,,> 100,
154 to 156,3 to 7,"CCCC(CCC)C(=O)N/N=C1\C(=O)Nc2ccc(Cl)cc21 [Compound 4c, (Z) N′-(5-Chloro-2-oxoindolin-3-ylidene)-2-propylpentane Hydrazide]",,4.39,,strong activity,2.9,,4.77,

# The next lines start with the compound.
Structure (SMILES),melting point [°C],IC50 [1] [µM],IC50 (μM) HepG2 [2],IC50 [2] [µM],IC50 [3] [µM],IC50 (μM) Jurkat [3],"IC50 ([3]; Homo sapiens, Jurkat, 24 h) [µM]",IC50 (μM) HEK293 [4],IC50 [4] [µM],IC50 ([3]; Homo sapiens) [µM]
O=C1C(=O)N(Cc2ccccc2)c2ccccc21 [Compound 3f],,3 to 7,,3.13,,strong activity,3.13,no activity,> 100,
CN1C(=O)C(=O)c2ccccc21 [Compound 3e],,3 to 7,,2.82,,,,no activity,> 100,7.13
"CCCC(CCC)C(=O)N/N=C1\C(=O)N(CCBr)c2ccccc21 [Compound 4g, (Z)-N′-(1-(2-Bromoethyl)-2-oxoindolin-3-ylidene)-2-propylpentane Hydrazide]",90 to 91,,no anti-cancer activity,> 100,,,,,45.4 ± 48.9,> 100
O=C1Nc2ccccc2C1=O [Compound 3a],,,no anti-cancer activity,> 100,,,> 100,,16.7 ± 50,
"CC(=O)N1C(=O)C(=O)c2ccccc21 [Compound 3h, N-acetylisatin]",,,no anti-cancer activity,> 100,,,> 100,,> 100,
"CCCC(CCC)C(=O)NN [Compound 2, Valproic Hydrazide]",,,did not show promising anti-cancer activity,68.5 ± 37.1,,,> 100,,> 100,
"CCCC(CCC)C(=O)O [Compound 1, Valproic acid, reference compound]",,,did not show promising anti-cancer activity,69.7 ± 40.8,,,79.4 ± 40.7,,63 ± 38.2,
"O=c1[nH]cc(F)c(=O)[nH]1 [Compound 5-FU, 5-Fluorouracil, reference compound]",,32 to 50,,32.1 ± 48.1,,,51.2 ± 47.4,,> 100,
